Here are results for one molecule from patent publication US8883504B2, “Cell differentiation suppressing agent, method of culturing cells using the same, culture solution, and cultured cell line” (Asahi Kasei Kabushiki Kaisha, priority 2003, dated 2014).

The subject of test [1] is STAT3. Put plainly: STAT3 activation assay 1 (pSTAT3-TA-Luc luciferase reporter). Type of test: cell-based, mouse. The note with it: D3ES cells, agent 0.4 to 40 μg/mL or ESGRO 10 to 10,000 unit/mL, 6 to 24 hours, FIG. 5. Here is the method: For the D3ES cells prepared by the method described in (3) preparation of a mouse ES cell of Example 1, 1×10^5 cells in 500 μL ES medium were seeded in a well of a 24-well cell culture dish (Falcon Corp. made, Cat No. 3047, USA) coated previously with a 0.1% aqueous gelatin solution, followed by culturing at 37° C. in 5% CO2 incubator for 12 hours to 24 hours. Next, by using LipofectAMINE 2000 (Invitrogen Corp. made, USA) by a protocol attached to the product, 0.9 μg per 1 well of pSTAT3-TA-Luc or pTA-Luc vector (Clontech Corp. made, USA) was transfected into the ES cells. In addition, 0.1 μg of an internal control, pRL-TK vector (Promega Corp. made, USA) was transfected at the same time for each well. Following culturing at 37° C. in 5% CO2 incubator for 4 hours, the medium was sucked, and the cells were washed twice with PBS and, then, a 500 μL-ES assay medium was added to each well. […] Next, by using PicaGene Dual SeaPansy (Toyo Ink made, Japan) by the attached protocol, a luminescence signal generated by a luciferase reporter enzyme of each cell was measured.
A general note: A reporter such as luciferase makes a cellular process visible.

The test system of test [2] is mouse embryonic stem cell line D3ES cell. Put plainly: Alkaline phosphatase staining 1. Type of test: cell-based. The method, then:
For the D3ES cell obtained by the preparation of the mouse ES cell as described in (3) above, 3×10^2 to 1×10^3 cells per well was seeded in […] of the ES cell assay medium in a well of a 96-well cell culture dish (Falcon Corp. made, Cat. No. 3072, USA) coated previously with a 0.1% aqueous gelatin solution. A 10 μl of the differentiation inhibiting agent (A,B,C,D,E,F: A to D were ASINEX Corp. (Russia) made and E to F were purchased from PHARMEKS Corp. (Russia)) of the present invention or ESGRO, which was dissolved in dimethylsulfoxide (DMSO), or water, or the mixture, was added to each well to make 0.4 to 40 μg/mL, and culturing was carried out at 37° C. in 5% CO2 incubator for 7 days. DMSO added to the medium was adjusted to make a final concentration of 0.1% or lower. On the other hand, to a control well was added only DMSO to make the final concentration of 0.1%.
The ES cells were stained by using an alkaline phosphatase kit (SIGMA Diagnostic Corp. made, Cat. No. 86-R). […]

Test [3] deals with STAT3. Nature of the test: STAT3 activation assay 2 (pSTAT3-TA-Luc luciferase reporter). It counts as cell-based, mouse. As to conditions: D3ES cells, agent 0.4 to 40 μg/mL or ESGRO 10 to 10,000 unit/mL, 6 to 24 hours, FIG. 12. The method, then: For the D3ES cells prepared by the method described in (3) preparation of the ES cell of Example 1, 1×10^5 cells were seeded on a 24-well cell culture dish (Falcon, Cat. No. 3047, USA) coated previously with a 0.1% aqueous gelatin solution to make the ES cell medium in 500 μL per 1 well followed by culturing at 37° C. in 5% CO2 incubator for 12 hours to 24 hours. Next, by using LipofectAMINE 2000 (Invitrogen Corp. made, USA) by a protocol attached to the product, 0.9 μg/well of pSTAT3-TA-Luc or pTA-Luc vector (Clontech Corp. made, USA) was transfected into the ES cells. On the other hand, 0.1 μg of the internal control, pRL-TK vector (Promega Corp. made, USA) was transfected at the same time for each well. Following culturing at 37° C. in 5% CO2 incubator for 4 hours, the medium was sucked and washed twice with PBS and, then, the 500 μL-ES assay medium was added to each well. […] Next, by using PicaGene Dual SeaPansy (Toyo Ink, Japan) by the attached protocol, the luminescence signal generated by the luciferase reporter enzyme of each cell was measured.

`CC(=O)c1ccc(/N=N/C(C(N)=O)=C2/NC(C)(C)Cc3ccccc32)cc1` [compound B, 2-(4-acetyl-phenylazo)-2-(3,3-dimethyl-3,4-dihydro-2H-isoquinoline-1-ylidene)-acetamide]: the “expression of the luciferase reporter enzyme by pSTAT3-TA-Luc” value in test [1] and in test [3] was “did not induce the expression of the reporter enzyme” throughout. For the same molecule, the “undifferentiated colony formation compared with ES cells cultured in the presence of ESGRO (positive control)” value in test [2] (compound 4 μg/mL, ESGRO 1000 units/mL) is recorded as “form an undifferentiated colony equal to that of the ES cells cultured in the presence of ESGRO”. In addition, the “alkaline phosphatase staining in comparison with ES cells cultured in the absence of ESGRO” value in test [2] (compound B 4 μg/mL, FIG. 4) is listed as “stained significantly more densely”.
